The values below come from ChEMBL document CHEMBL1201862, “PubChem BioAssay data set” (2004).

Activity calls are given as the source filed them. Cut-off read from the data, not from the text of the source, for most assays here: actives have a measured EC50 and inactives only a lower limit.

Experiment [1] in a line: Luminescence Cell-Based Dose Confirmation HTS to Identify Activators of 5'UTR Stem-Loop Driven Alpha-Synuclein mRNA Translation in H4 Neuroglioblastoma Cells. [Related pubchem assays: 1829 (Project Summary), 1814 (Primary HTS)]. Format: functional.
The nature of experiment [2]: Luminescence Cell-Based Dose Response HTS to Identify Activators of Luciferase Translation or Activity in H4 […] Cells. [Related pubchem assays: 1829 (Project Summary), 1814 (Primary HTS)]. Format: functional.
In a further experiment the test system is H4. Briefly: Luminescence Cell-Based Dose Response HTS to Identify Activators of 5'UTR Stem-Loop Driven Prion Protein mRNA Translation in H4 Neuroglioblastoma Cells. [Related pubchem assays: 1829 (Project Summary), 1814 (Primary HTS)]. Format: functional. To be noted: Homo sapiens.
Experiment [3] is described as follows: NIH-3T3 fibroblast cytotoxicity, dose response, cytotoxicity control, cell-based, fluorescence, Alamar Blue, secondary assay (AID 2327).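 Note: NIH-3T3 mouse fibroblasts cultured with fluconazole at 8 µg/mL.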 The experiment is classed as functional. On the technique in general: Alamar Blue is a resazurin reagent that responds to reducing activity.
Experiment [4] can be described thus: fluconazole-exposed Candida albicans growth modulators – fluorescence, retest, confirmation (AID 2467). Format: functional, cell-based.
Experiment [5] is described as follows: viability of uninfected HEp-2 cells – cell-based, HTS, cytotoxicity control for RSV inhibitor project, dose response (AID 2410). The experiment is classed as functional. To be noted: human respiratory syncytial virus.
The target in experiment [6] is T1, Replicative DNA helicase DnaB (Mycobacterium tuberculosis, UniProt P9WMR3).
T1 sequence (P9WMR3 whole entry): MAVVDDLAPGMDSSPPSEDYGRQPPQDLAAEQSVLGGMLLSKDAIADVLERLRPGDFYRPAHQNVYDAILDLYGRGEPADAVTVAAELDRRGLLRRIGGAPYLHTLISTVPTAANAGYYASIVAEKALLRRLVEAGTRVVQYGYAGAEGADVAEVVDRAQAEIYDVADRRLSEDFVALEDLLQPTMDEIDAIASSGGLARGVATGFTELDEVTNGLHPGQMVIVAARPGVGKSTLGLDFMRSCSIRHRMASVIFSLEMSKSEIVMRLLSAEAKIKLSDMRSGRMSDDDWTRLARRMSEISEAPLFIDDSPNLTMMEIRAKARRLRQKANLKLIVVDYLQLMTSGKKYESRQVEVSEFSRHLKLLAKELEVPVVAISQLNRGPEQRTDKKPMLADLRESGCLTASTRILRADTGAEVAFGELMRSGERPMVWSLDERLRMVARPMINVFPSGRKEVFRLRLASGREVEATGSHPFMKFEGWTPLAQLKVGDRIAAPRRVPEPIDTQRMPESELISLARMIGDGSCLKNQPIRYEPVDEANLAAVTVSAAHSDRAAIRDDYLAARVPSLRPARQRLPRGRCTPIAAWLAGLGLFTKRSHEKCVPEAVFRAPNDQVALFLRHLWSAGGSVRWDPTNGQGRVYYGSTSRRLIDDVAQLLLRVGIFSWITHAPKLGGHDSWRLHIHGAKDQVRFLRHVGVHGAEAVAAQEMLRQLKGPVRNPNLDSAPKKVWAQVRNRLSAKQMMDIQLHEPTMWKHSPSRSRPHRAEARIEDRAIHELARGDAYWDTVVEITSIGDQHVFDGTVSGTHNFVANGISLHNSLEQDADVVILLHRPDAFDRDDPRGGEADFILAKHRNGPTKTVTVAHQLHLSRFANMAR
In words: DnaB intein splicing inhibitors, dose response, biochemical, cell-free fluorescence (AID 449749). The experiment is classed as functional.

Another experiment has as its target T2, Protein RecA (Mycobacterium tuberculosis, UniProt P9WHJ3).
T2 sequence (P9WHJ3 whole entry): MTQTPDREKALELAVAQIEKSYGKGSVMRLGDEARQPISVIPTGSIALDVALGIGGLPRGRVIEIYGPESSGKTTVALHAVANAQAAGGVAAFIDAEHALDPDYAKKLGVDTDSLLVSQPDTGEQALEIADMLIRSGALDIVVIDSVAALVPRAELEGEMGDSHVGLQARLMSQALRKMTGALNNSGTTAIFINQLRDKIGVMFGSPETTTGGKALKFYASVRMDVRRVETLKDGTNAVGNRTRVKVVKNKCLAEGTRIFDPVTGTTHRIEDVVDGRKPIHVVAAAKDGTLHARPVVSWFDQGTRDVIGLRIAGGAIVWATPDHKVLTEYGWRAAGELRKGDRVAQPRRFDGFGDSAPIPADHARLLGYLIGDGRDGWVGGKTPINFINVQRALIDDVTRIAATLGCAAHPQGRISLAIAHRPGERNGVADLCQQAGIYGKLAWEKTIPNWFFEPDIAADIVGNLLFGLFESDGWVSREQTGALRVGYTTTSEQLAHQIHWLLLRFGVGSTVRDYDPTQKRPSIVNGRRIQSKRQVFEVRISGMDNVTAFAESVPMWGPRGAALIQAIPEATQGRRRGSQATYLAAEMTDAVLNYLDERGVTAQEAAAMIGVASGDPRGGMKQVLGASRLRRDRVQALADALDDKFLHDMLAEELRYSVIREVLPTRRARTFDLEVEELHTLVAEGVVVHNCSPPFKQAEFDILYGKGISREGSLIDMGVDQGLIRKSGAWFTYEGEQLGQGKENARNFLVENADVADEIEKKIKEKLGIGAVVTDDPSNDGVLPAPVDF
Briefly: Fluorescence Cell-Free Homogeneous Dose Retest to Identify Inhibitors of RecA-Intein Splicing Activity. [Related pubchem assays (depositor defined):AID2097, AID2223, AID489010, AID492950]. The experiment is classed as functional.

For experiment [7], the target named is T3, Calpain-2 catalytic subunit (Sus scrofa, UniProt P43367).
T3 sequence (P43367 whole entry): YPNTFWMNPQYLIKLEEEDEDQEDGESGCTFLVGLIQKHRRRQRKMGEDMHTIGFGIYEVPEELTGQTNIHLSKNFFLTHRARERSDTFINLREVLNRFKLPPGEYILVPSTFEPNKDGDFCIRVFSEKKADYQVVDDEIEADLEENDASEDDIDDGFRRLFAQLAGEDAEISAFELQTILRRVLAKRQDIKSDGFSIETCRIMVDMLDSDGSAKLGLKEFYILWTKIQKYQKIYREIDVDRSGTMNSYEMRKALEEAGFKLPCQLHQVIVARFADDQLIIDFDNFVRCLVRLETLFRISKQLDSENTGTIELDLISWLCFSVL
In words: m-calpain protease blockers, concentration series – biochemical, fluorogenic peptide substrate, dose response (AID 1420). The experiment is classed as functional.

Experiment [8] addresses T4, Rac GTPase-activating protein 1 (Homo sapiens, UniProt Q9H0H5).
T4 sequence (Q9H0H5 whole entry): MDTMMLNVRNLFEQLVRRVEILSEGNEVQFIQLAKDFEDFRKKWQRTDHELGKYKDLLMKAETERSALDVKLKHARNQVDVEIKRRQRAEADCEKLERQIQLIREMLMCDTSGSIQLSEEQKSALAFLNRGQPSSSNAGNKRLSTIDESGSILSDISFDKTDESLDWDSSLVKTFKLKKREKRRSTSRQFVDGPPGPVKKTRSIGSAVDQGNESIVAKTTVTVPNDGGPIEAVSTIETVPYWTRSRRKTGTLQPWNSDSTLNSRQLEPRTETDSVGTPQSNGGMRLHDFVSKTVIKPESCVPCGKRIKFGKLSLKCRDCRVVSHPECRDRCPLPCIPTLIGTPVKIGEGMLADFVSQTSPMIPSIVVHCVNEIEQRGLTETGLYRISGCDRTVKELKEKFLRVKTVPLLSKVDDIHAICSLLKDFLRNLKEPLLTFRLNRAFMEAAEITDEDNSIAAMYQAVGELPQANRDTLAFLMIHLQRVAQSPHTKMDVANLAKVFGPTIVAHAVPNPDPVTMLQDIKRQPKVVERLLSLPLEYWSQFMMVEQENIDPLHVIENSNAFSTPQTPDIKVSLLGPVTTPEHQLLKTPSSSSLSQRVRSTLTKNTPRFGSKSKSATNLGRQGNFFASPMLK
Briefly: blockers of MgcRacGAP-driven Rac1 GTP hydrolysis – biochemical, ADP Hunter fluorescence, primary and confirmatory, confirmation (AID 624330). The experiment is classed as functional.

By EC50 is commonly meant the concentration giving half of the maximal effect. `O=C(c1cc2ccccc2oc1=O)N(c1ccc(Cl)cc1)C1C=CS(=O)(=O)C1` (stereo not given): the results for the EC50 (in experiment [1]; in experiment [2]; with H4) were 13.6 µM (active), 36.3 µM (active) and > 120 µM (not active), respectively.

Take `COc1ccccc1NC(=O)Cn1cnc2c(cnn2-c2ccccc2)c1=O`: the EC50 in [3] was > 150 µM (inactive); in experiment [4] it was > 38 µM (not active). The term CC50 denotes the concentration that lowers cell viability or growth by half. Turning to `CCOc1ccc2nc(SCC(=O)N3CCN(C(=O)c4ccco4)CC3)sc2c1`, the CC50 in experiment [5] is 22.8 µM (active). Take `Cc1ccc(/C=C/C(=O)c2c(C)cc(C)nc2O)cc1`: the CC50 in experiment [5] is 17.7 µM (active). As to `O=C(Nc1cccnc1)C1CCN(S(=O)(=O)c2cccs2)CC1`, the EC50 (in [1]; in [2]; with H4) was > 120 µM (not active) throughout. For `Cc1ccc(N(CCCCN2C(=O)c3ccccc3C2=O)C(=O)c2cccs2)cc1`, in experiment [5], the CC50 was 38.9 µM (active). What is called AC50 is the concentration giving half of the maximal activity seen. As to `Cc1nc2ccccc2c2c1C(=O)N(c1cccc(C(=O)O)c1)C2=O`, the AC50 in experiment [6] is 37 µM (active). Moreover, the EC50 at Protein RecA is 17 µM (active). As a reminder, the IC50 is the concentration that inhibits the measured activity by half. On to `O=C1CC2C(=O)NCCN2C(NC(=O)c2ccc(Cl)cc2)=N1` (stereo not given), for which the IC50 in [7] was 0.931 µM (not active).

Consider `N#Cc1cc2c(nc1SCc1nc3ccccc3[nH]1)CCC2`, for which the CC50 in experiment [5] is 38 µM (active). Consider `CC(NC(=O)c1ccccc1)c1ccc(F)cc1` (stereo not given), for which the IC50 in experiment [7] is > 50 µM (not active). Take `CCOC(=O)N1CCN(CC(=O)Nc2sccc2C#N)CC1`: in [7], the IC50 was 33.6 µM (not active). In the case of `CCCCC(=O)Nc1ccc(C(=O)c2ccccc2)cc1`, the IC50 in experiment [7] is > 50 µM (not active). Consider `Cc1ccc(C2CC(C(F)F)n3ncc(C(=O)Nc4cnn(Cc5ccccc5C)c4)c3N2)cc1` (stereo not given), for which, in experiment [5], the CC50 is 19.4 µM (active). In the case of `CCN(c1ccc(OCC(=O)OCC(=O)Nc2ccc(F)c(F)c2F)cc1)S(=O)(=O)c1ccccc1`, the IC50 in experiment [7] is 3.96 µM (not active). For `CCCCCOc1ccc(CSc2n[nH]c(C)n2)cc1`, the EC50 was 63 µM (active) in experiment [1], 14.5 µM (active) in [2] and 20.8 µM (active) with H4. Consider `COc1ccccc1C1CC(c2ccco2)=NN1S(C)(=O)=O` (stereo not given), for which the EC50 in experiment [3] was > 160 µM (inconclusive); in experiment [4], > 38 µM (not active).

Turning to `CC(C)c1n[nH]c2c1C1(CCN(Cc3ccccc3)CC1)C(C#N)=C(N)O2`, the AC50 in [6] was 53.5 µM (active). At Protein RecA, the EC50 is 1.16 µM (active). On to `O=C(CC1CCCCC1)NCc1ccccc1Cl`, for which the figures for the EC50 (in [1]; in experiment [2]; in the experiment with H4) were > 120 µM (not active), 14.1 µM (active) and > 120 µM (not active), respectively. `O=C(Nc1ccc(F)c(Cl)c1)NC1CC1`: the EC50 in experiment [3] was > 150 µM (inactive); in [4] it was 2.1 µM (active).

`COc1ccc(/C(=C/Nc2cccc(Br)c2)C(C)=O)cc1OC`: in [7], the IC50 is recorded as 9 µM (not active).

With `C=CCn1c(CCCNC(=O)c2ccccc2OC)nc2ccccc21`, in experiment [7], the IC50 is listed as 13.2 µM (not active). `Cc1ccc(Cl)cc1N1CCN(C(=O)CCCn2c(=O)c3cccn3c3cccnc32)CC1`: the CC50 in experiment [5] was 12.1 µM (active). On the same count and under the same terms, to `CCCCNc1nnc(SCC(=O)N2CCN(S(=O)(=O)c3ccc4ccccc4c3)CC2)s1` belongs > 50 µM (active). Take `CC(=O)c1cccc(NC(=S)NC(=O)c2ccc(C)cc2)c1`: the EC50 in [3] is > 160 µM (inactive); in [4], > 38 µM (not active). With `COc1ccc(CN2C(=O)/C(=C\NNC(=O)c3cccnc3)c3ccccc3C2=O)cc1`, the IC50 in experiment [8] is 137 µM (active). In addition, the EC50 is 27.4 µM (active) in experiment [3] and 1.32 µM (active) in experiment [4]. For the compound `Cc1cccc(N2CCN(C(=O)c3ccc4c(c3)CCN4S(C)(=O)=O)CC2)c1C`, in experiment [5], the CC50 is 38.3 µM (active).

`CCOC(=O)CN(C(=O)CSc1n[nH]c2c3cc(F)ccc3nc-2n1)c1ccccc1`: the IC50 in experiment [7] is recorded as 5.94 µM (not active).

Turning to `CC1=C(C(=O)OCc2ccccc2)C(c2cccs2)N2C(=O)CCSC2=N1` (stereo not given), the IC50 in experiment [7] is 8.99 µM (not active).

Consider `O=C(NCc1ccccn1)C(=O)Nc1ccccc1`, for which the EC50 in experiment [1] was 46.3 µM (active); in [2], 27.2 µM (active); with H4, 13 µM (active). As to `CCOC(=O)C1CCN(Cc2cc(C(C)C)c(O)c(C(C)C)c2)CC1`, at Protein RecA, the EC50 is > 380 µM (inactive).

On to `O=C1c2ccccc2S(=O)(=O)c2cc(N3CCc4ccccc4C3)ccc21`, for which the figures for the EC50 (in experiment [1]; in [2]; in the experiment on H4) were 14 µM (active), 16.3 µM (active) and 15.6 µM (active), respectively. Turning to `N#C/C(=C(/O)CN1C(=O)c2ccccc2C1=O)c1nc2ccccc2[nH]1`, the IC50 in [7] is on record as 2.28 µM (not active). For the compound `COc1ccccc1N1CCN(/N=C/c2cc([N+](=O)[O-])ccc2Cl)CC1`, the CC50 in experiment [5] is 29 µM (active). On to `N#Cc1c(-c2ccc(Cl)cc2)cc(-c2ccccc2)nc1SCC(=O)O`, for which the figures for the EC50 in experiment [3] and in [4] were 134 µM (active) and 1.57 µM (active), respectively.
